Experimental data: US20230107216A1, “PANTETHEINE DERIVATIVES AND USES THEREOF” (Comet Therapeutics, Inc., priority 2018, published 2023)
Read-outs that look alike come from different tables or passages of the source.

Assays:
[1] = system: Propionic Acidemia (PA) primary fibroblasts GM00371; assay: Mitochondrial respiration, XFe96 Extracellular Flux Analyzer (OCR/ECAR), PA fibroblasts GM00371; type: cell-based; details: Homo sapiens, Fibroblast, read-out: Increase in Maximal Respiratory Capacity AUC; for activation at 50 µM: assay condition C (10 mM glucose, 10% FBS)
[2] = system: HepG2 cells; assay: Glucose uptake (Glucose Uptake-Glo); type: cell-based; details: Homo sapiens, 10 uM, read-out: % increase in Glucose Uptake
[3] = system: Venular Endothelial cells (HUVEC) (3C system); assay: BioMAP 3C system (IL-1β, TNFα, IFNγ); type: cell-based, human; details: 10 uM; procedure of Example 825
Experimental: The BioMAP platform (BioMAP® Diversity PLUS® Panel from Eurofins) is an in vitro phenotypic profiling technology that screened the compounds of the present disclosure (hereafter indicated as test agents) in human primary cell-based systems modelling complex tissue and disease states. The BioMAP assays were performed using the Eurofin's BioMAP Technology Platform as (see references 1 to 13 in the example 824 section) to model different diseases on primary cell-based model systems. These systems consisted of either single primary cell types or co-culture cells. Adherent cell types were cultured or co-cultured in 96 or 384-well plates until confluence followed by the addition of compounds prepared in DMSO at a final concentration of ≤0.1%. In each cell-based system, primary cells from heathy donors (2-6 donors) were pooled and treated with compounds at 1 and 10 μM dose 1h prior to stimulation and remain in culture as indicated in Example 825, Example 826, Example 827, Example 828, Example 829, Example 830, Example 831, Example 832, Example 833, Example 834, Example 835, Example 836 and Example 837. For on the BioMAP® Diversity PLUS® Panel, please see the following references, which are incorporate herein.
Following the general procedure as described in Example 824, Venular Endothelial cells (HUVEC) (3C system) were treated with IL-1β, TNFα, IFNγ for 24h to model Th1 driven cardiovascular and chronic inflammation diseases in the presence or absence of the compounds. Biomarker read out were; Tissue Factor, ICAM-1, E-selectin, uPAR (CD87), IL-8, MIG, HLA-DR, proliferation and SRB (Sulfo-rhodamine i.e. staining for protein content).

[4] = system: Venular Endothelial cells (HUVEC) (4H system); assay: BioMAP 4H system (IL-4 and histamine); type: cell-based, human; details: procedure of Example 826; for inhibition at 1 µM: Homo sapiens, HUVEC, 24 h, read-out: % decrease in VEGFRII
[5] = system: Peripheral blood mononuclear cells co-cultured with venular endothelial cells (HUVEC) (LPS system); assay: BioMAP LPS system; type: cell-based, human; details: procedure of Example 827; for inhibition at 1 µM / activation at 10 µM / inhibition at 10 µM: Homo sapiens, HUVEC, 24 h; for activation at 10 µM: read-out: % increase in sTNFα
[6] = system: Bronchial epithelial cells co-cultured with dermal fibroblast (BF4T system); assay: BioMAP BF4T system (TNFα and IL-4); type: cell-based, human; details: procedure of Example 830
[7] = system: Bronchial epithelial cells (BE3C system); assay: BioMAP BE3C system (IL-1β, TNFα, IFNγ); type: cell-based, human; details: 10 uM, procedure of Example 831; for inhibition at 10 µM: Homo sapiens, Epithelial cell, 24 h, read-out: % decrease in MMP-1
[8] = system: Coronary artery smooth muscle cells (CASM3C system); assay: BioMAP CASM3C system (IL-1β, TNFα, IFNγ); type: cell-based, human; details: for inhibition at 10 µM: Homo sapiens, 24 h, read-out: % decrease in Thrombomodulin
[9] = system: Dermal fibroblasts (HDF3CGF system); assay: BioMAP HDF3CGF system (IL-1β, TNFα, IFNγ, EGF, bFGF, PDGF-BB); type: cell-based, human
[10] = system: Peripheral blood mononuclear cells co-cultured with B-cells (BT system); assay: cells; details: Homo sapiens, 72 h
[11] = system: Peripheral blood mononuclear cells co-cultured with B-cells (BT system)
[12] = system: primary culture of rat embryo mesencephalic cells (microglia, astrocytes and neurons) exposed to LPS; assay: Neuroprotective effect on damage induced by LPS on culture of mesencephalic neurons (NO, TNF-α, IL-1β, TH positive neurons); type: cell-based; details: 50 uM, after 5 days of LPS exposure; for inhibition at 50 µM: Rattus norvegicus, Neuron, 120 h, read-out: % reversion of TH positive neurons
Experimental: Drug preparation. […] The stock solutions will be prepared 1000× the concentration in 100% DMSO. The final concentration of the vehicle (DMSO) is set at 0.1%.
Test animals. Pregnant Wistar rats (Janvier; France) are used for the study. They are group-housed and maintained in a room with controlled temperature (21-22° C.) and a reversed light-dark cycle (12h/12h; lights on: 17:30-05:30; lights off: 05:30-17:30) with food and water available ad libitum.
The protocol is performed in 3 independent cultures. For each culture, each condition is performed in sextuplicate.
Female rat of 15 days gestation is killed by cervical dislocation. Fetuses are removed from the uterus and their brains are harvested and placed in ice-cold medium (Leibovitz's L15 medium, Gibco). Only ventral mesencephalic flexure is used for the cell preparations. The midbrain is dissociated by trypsinization. The reaction is stopped, and the suspension is triturated and centrifuged. The pellet of dissociated cells is resuspended in culture medium consisted of DMEM-F12 (Gibco), containing 10% FBS (ATCC), 10% Horse serum (Gibco) and 2 mM L-glutamine (Gibco). Viable cells are counted and seeded on 96-well plates, precoated with poly-L-lysine. Cells are maintained in a humidified incubator at 37° C. in 5% CO2-95% air atmosphere. Half of the medium is changed on day 2 and day 5.
Treatment. On day 7, culture media are removed and replaced by new medium consisting of DMEM-F12 (Gibco) supplemented with 2% FBS (ATCC), 2% Horse serum (Gibco) and 2 mM L-glutamine (Gibco) and containing vehicle or test substances. After 1-hour exposure, LPS at 10 ng/ml is added and exposure further continued for 24 hours or 5 days period.
Inflammatory response measurement and neuronal death evaluation. NO production is measured in the media 24h and 5 days after LPS exposure using the Griess reagent kit (Molecular Probes). The Griess reagent Assay is a colorimetric reaction assay which measures the conversion of a sulfanilic salt into an azo dye product by nitrite. Visible wavelength absorbance data is collected using a 96-well plate reader at 570 nm (Multiskan EX, Thermo Fisher, France). IL-1β and TNF-α release are measured in the media 24h after LPS exposure using the ELISA development kit (PeproTech). The ELISA plate, previously coated with anti-IL-1β or anti-TNF-αantibody at 1 μg/ml, is incubated 1h with PBS containing 1% of BSA (bovine serum albumin). After washing four times with PBS containing 0.05% of Tween-20, the plate is successively incubated 2h with supernatant, 2h with biotinylated antibody at 0.5 μg/ml in PBS containing 0.1% of BSA and 0.05% of Tween-20, 45 min with Avidin-HRP conjugated at 1/2000 and 30 min with color ABTS substrate (Sigma). Visible wavelength absorbance data is collected using a 96-well plate reader at 405 nm with wavelength correction set at 650 nm (Multiskan EX, Thermo Fisher, France).
Immunodetection of tyrosine hydroxylase positive neurons. On day 12 (5 days after LPS exposure), cultures are fixed 30 min at 4° C. with paraformaldehyde in PBS (4%, Sigma). Then, cells are successively permeabilized with 0.1% Triton X100 for 30 min, saturated with PBS containing 3% of BSA (bovine serum albumin) and are incubated 2h with anti-tyrosine hydroxylase antibody (Sigma, 1:10000; clone TH-2) at 1/10 000 in PBS containing 0.5% of BSA. Cells are washed three times with PBS containing 0.5% of BSA, and they are incubated 1h with goat anti mouse antibody coupled with AF488 (Invitrogen A11001) diluted at 1/1000 in PBS containing 0.5% of BSA. Finally, nuclei are stained with DAPI at 1/1000 in PBS containing 0.5% of BSA. After rinsing with PBS, the plate is visualized and examined with Cell Insight HCS (Thermo Scientific) to determine the number of tyrosine hydroxylase positive cells per well.
Statistical Analysis. The drug-induced effect on NO and cytokines is calculated by setting the response of the LPS-stimulated control as 100%. […]

[13] = 10 uM, procedure of Example 833
[14] = 10 uM, procedure of Example 829

COC(=O)CCC(=O)SCCNC(=O)CCNC(=O)[C@H](O)C(C)(C)COC(=O)OCC[N+](C)(C)C [Compound 117, [2-([[(3R)-3-hydroxy-3-[[2-([2-[(4-methoxy-4-oxobutanoyl)sulfanyl]ethyl]carbamoyl)ethyl]carbamoyl]-2,2-dimethylpropoxy]carbonyl]oxy)ethyl]trimethylazanium] was tested, and the activation at 50 µM [1] was no less than 10%, the activation at 10 µM [2] was no less than 30% and the “% increase in Proliferation (HUVEC)” value [3] was no less than 10%. For the same compound, the inhibition at 1 µM [4] was no less than 10%, the “% increase in IL-1α” value ([5]; 1 uM) was no less than 10% and the “% increase in Tissue Factor” value ([5]; 1 uM) was no less than 10%. The inhibition at 1 µM ([5]; 1 uM, read-out: % decrease in sPGE2) was no less than 10%, the activation at 10 µM [5] was no less than 20% and the “% decrease in tPA” value ([6]; 10 uM) was no less than 10%. The “% decrease in tPA” value [7] was no less than 10%, the inhibition at 10 µM [7] was no less than 10% and the “% decrease in CXCL9” value ([8]; 10 uM) was no less than 10%. The inhibition at 10 µM ([8]; 10 uM) was no less than 10%, the activation at 10 µM ([9]; Homo sapiens, Fibroblast, 72 h, 10 uM, read-out: % increase in 72 Hour Proliferation) was no less than 10% and the inhibition at 1 µM ([10]; read-out: % decrease in sIL-17) was no less than 20%. The activation at 10 µM ([10]; read-out: % increase in sIL-6) was no less than 10%.
CC(=O)OCCCC(=O)SCCNC(=O)CCNC(=O)[C@H](O)C(C)(C)CO [Compound 1305, 4-[(2-[3-[(2R)-2,4-dihydroxy-3,3-dimethylbutanamido]propanamido]ethyl)sulfanyl]-4-oxobutyl acetate] showed an activation at 50 µM [1] of no less than 10%, an activation at 10 µM ([1]; assay condition D (1 mM glucose, 10% FBS), 10 μM) of no less than 10% and an activation at 10 µM [2] of no less than 10%. The “% increase in Proliferation (HUVEC)” value [3] was no less than 20%, the “% decrease in MCP-1” value ([4]; 10 uM) was no less than 10% and the inhibition at 1 µM [4] was no less than 10%. It also gave an inhibition at 1 µM ([5]; 1 uM, read-out: % decrease in IL-8) of no less than 10%, an inhibition at 1 µM ([5]; 1 uM, read-out: % decrease in TissueFactor) of no less than 10% and an activation at 10 µM [5] of no less than 20%. The inhibition at 10 µM [7] was no less than 10%, the “% decrease in M-CSF” value ([8]; 1 uM, procedure of Example 832) was no less than 10% and the “% decrease in Proliferation” value ([8]; 1 uM, procedure of Example 832) was no less than 10%. For the same compound, the “% decrease in VCAM-1” value ([8]; 1 uM, procedure of Example 832) was no less than 10%, the “% decrease in CXCL9” value ([8]; 10 uM) was no less than 10% and the “% decrease in Tissue Factor” value ([8]; 10 uM) was no less than 10%. The inhibition at 10 µM ([8]; 10 uM) was no less than 20%, the “% decrease in CXCL11/I-TAC” value [9, 13] was no less than 10% and the inhibition at 1 µM ([9]; Homo sapiens, Fibroblast, 24 h, 1 uM, read-out: % decrease in Collagen III) was no less than 10%. For the same compound, the “% increase in B-cell Proliferation” value [11, 14] was no less than 10% and the inhibition at 10 µM ([10]; read-out: % decrease in sIL-17) was no less than 20%.
For COC(=O)/C=C/C(=O)SCCNC(=O)CCNC(=O)[C@H](O)C(C)(C)COC(C)=O [Compound 145, methyl (2E)-4-[(2-[3-[(2R)-4-(acetyloxy)-2-hydroxy-3,3-dimethylbutanamido]propanamido]ethyl)sulfanyl]-4-oxobut-2-enoate], the activation at 10 µM [2] was no less than 30%, the “% decrease in IL-8” value [3] was no less than 10% and the inhibition at 10 µM ([5]; read-out: % decrease in IL-1α) was no less than 10%. For the same compound, the inhibition at 10 µM ([5]; read-out: % decrease in IL-8) was no less than 10%, the activation at 10 µM [5] was no less than 10% and the “% increase in tPA” value ([6]; 10 uM) was no less than 10%. The activation at 1 µM ([6]; Homo sapiens, 24 h, 1 uM, read-out: % increase in VCAM-1) was no less than 10%, the “% decrease in LDLR” value ([8]; 1 uM, procedure of Example 832) was no less than 10% and the “% decrease in HLA-DR” value ([8]; 10 uM) was no less than 10%. For the same compound, the “% decrease in Collagen I” value [9, 13] was no less than 10%, the inhibition at 10 µM ([9]; Homo sapiens, Fibroblast, 24 h, 10 uM, read-out: % decrease in Collagen III) was no less than 10% and the “% decrease in NO release relative to LPS alone” value [12] was no less than 35%. For the same compound, the inhibition at 50 µM ([12]; list at threshold 15%) was no less than 15%, the inhibition at 50 µM ([12]; list at threshold 50%) was no less than 50% and the “% decrease in B-cell proliferation” value ([11]; 1 uM, procedure of Example 829) was no less than 20%. For the same compound, the “% decrease in sTNFα” value [11, 14] was no less than 10%, the “% decrease in PBMC cytotoxicity” value ([11]; human, 72 h, 10 µM) was no less than 20% and the inhibition at 1 µM ([10]; read-out: % decrease in sIL-17) was no less than 10%.
